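At the GI50, growth is halved. TGI is the concentration that stops growth completely.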
Legend:
Test in all cases: inhibition of tumour cell growth, NCI panel, 384-well format
SF-539 CNS = tested on: SF-539 CNS
RPMI-8226 leukemia = tested on: RPMI-8226 leukemia
CCRF-CEM leukemia = tested on: CCRF-CEM leukemia
HCT-15 colon = tested on: HCT-15 colon
HOP-92 NSCLC = tested on: HOP-92 NSCLC
MALME-3M melanoma = tested on: MALME-3M melanoma
CAKI-1 renal = tested on: CAKI-1 renal
MDA-MB-468 breast = tested on: MDA-MB-468 breast
COLO 205 colon = tested on: COLO 205 colon
EKVX NSCLC = tested on: EKVX NSCLC
HCT-116 colon = tested on: HCT-116 colon
TK-10 renal = tested on: TK-10 renal
M14 melanoma = tested on: M14 melanoma
HOP-62 NSCLC = tested on: HOP-62 NSCLC
MDA-MB-435 melanoma = tested on: MDA-MB-435 melanoma
NCI-H226 lung = tested on: NCI-H226 lung
HS 578T breast = tested on: HS 578T breast
SR leukemia = tested on: SR leukemia
SNB-75 CNS = tested on: SNB-75 CNS
BT-549 breast = tested on: BT-549 breast
UACC-62 melanoma = tested on: UACC-62 melanoma
ACHN renal = tested on: ACHN renal
SF-295 CNS = tested on: SF-295 CNS
NCI-H460 NSCLC = tested on: NCI-H460 NSCLC
A549 NSCLC = tested on: A549 NSCLC
DU-145 prostate = tested on: DU-145 prostate
SW-620 colon = tested on: SW-620 colon
IGROV1 ovarian = tested on: IGROV1 ovarian
MDA-MB-231 breast = tested on: MDA-MB-231 breast
OVCAR-5 ovarian = tested on: OVCAR-5 ovarian

## COc1cc2c(c(OC)n1)[C@]1(O)[C@H](O)[C@H](CN(C)C)[C@@H](c3ccccc3)[C@]1(c1ccc(C#N)cc1)O2
SF-539 CNS
  GI50: < 10 nM
  TGI: 20.1 nM
RPMI-8226 leukemia
  GI50: < 10 nM
  TGI: < 10 nM
CCRF-CEM leukemia
  GI50: < 10 nM
  TGI: 17.8 nM
HCT-15 colon
  GI50: 13.1 nM
  TGI: 99.3 nM
HOP-92 NSCLC
  GI50: 19.5 nM
  TGI: 78.7 nM
MALME-3M melanoma
  GI50: < 10 nM
  TGI: 61.1 nM
CAKI-1 renal
  GI50: < 10 nM
  TGI: 41 nM
MDA-MB-468 breast
  GI50: < 10 nM
  TGI: 23.1 nM
COLO 205 colon
  GI50: < 10 nM
  TGI: 120 nM
EKVX NSCLC
  GI50: < 10 nM
  TGI: 46.3 nM
HCT-116 colon
  GI50: < 10 nM
  TGI: 26 nM
TK-10 renal
  GI50: 13.7 nM
  TGI: 46.4 nM
M14 melanoma
  GI50: < 10 nM
  TGI: 38.2 nM
HOP-62 NSCLC
  GI50: < 10 nM
  TGI: 48.3 nM
MDA-MB-435 melanoma
  GI50: < 10 nM
  TGI: 583 nM
NCI-H226 lung
  GI50: < 10 nM
  TGI: 57.5 nM
HS 578T breast
  GI50: < 10 nM
  TGI: 40.6 nM
SR leukemia
  GI50: 11.7 nM
  TGI: 32.8 nM
SNB-75 CNS
  GI50: 16 nM
  TGI: 360 nM
BT-549 breast
  GI50: 23.7 nM
  TGI: 95.7 nM
UACC-62 melanoma
  GI50: 11.9 nM
  TGI: 57.5 nM
ACHN renal
  GI50: 10.2 nM
  TGI: 48.3 nM
SF-295 CNS
  GI50: 25.9 nM
  TGI: 81.9 nM
NCI-H460 NSCLC
  GI50: < 10 nM
  TGI: 23.3 nM
A549 NSCLC
  GI50: 12 nM
  TGI: 16 µM
DU-145 prostate
  GI50: < 10 nM
  TGI: 48 nM
SW-620 colon
  GI50: < 10 nM
  TGI: 10 µM
IGROV1 ovarian
  GI50: < 10 nM
  TGI: 13.9 µM
MDA-MB-231 breast
  GI50: 14.6 nM
  TGI: 94.8 nM
OVCAR-5 ovarian
  GI50: 11 nM

Reference: PubChem BioAssay (NCI)
